{
  "source": "patent US7943770B2",
  "about": "“Fused quinoline derivative and use thereof” (Takeda Pharmaceutical Company Limited, priority 2004, dated 2011)",
  "data": [
    {"target": "T1, hNK2 receptor (Homo sapiens, UniProt P21452)", "T1 construct": "host or cells: CHO cells", "T1 sequence (P21452 1-398)": "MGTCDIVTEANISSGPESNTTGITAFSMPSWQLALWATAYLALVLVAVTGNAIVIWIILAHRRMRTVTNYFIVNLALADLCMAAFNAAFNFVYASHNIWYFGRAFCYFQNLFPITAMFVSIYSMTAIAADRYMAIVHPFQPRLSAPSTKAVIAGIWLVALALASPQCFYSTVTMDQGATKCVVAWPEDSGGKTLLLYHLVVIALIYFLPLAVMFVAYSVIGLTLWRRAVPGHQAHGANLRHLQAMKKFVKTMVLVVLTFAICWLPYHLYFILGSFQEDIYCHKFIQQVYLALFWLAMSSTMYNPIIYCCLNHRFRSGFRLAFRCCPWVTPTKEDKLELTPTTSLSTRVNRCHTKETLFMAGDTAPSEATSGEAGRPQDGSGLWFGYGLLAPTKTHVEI", "test": "Radio-ligand ([125I]-NKA) receptor binding inhibitory activity using membrane fraction of hNK2 receptor-expressing CHO cell", "conditions": "membrane fraction of hNK2 receptor-expressing CHO cells, 25° C., 30 min", "outline": "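Inhibition of [125I]-NKA binding ([…] solution added) measured after 30 min at 25 °C using hNK2-CHO membrane fraction (20 μg/mL suspension) in pH 7.4 Tris buffer containing MnCl2, BSA and protease inhibitors. Filter-bound counts read; activity calculated as fraction of specific binding, non-specific defined with unlabeled NKA.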", "units": {"IC50": "nM"}, "values": [
      {"molecule": "CCCCCC(=O)N[C@@H]1CCCC[C@@H]1C(=O)N1CC[C@@H]2[C@H](c3ccccc3)Nc3ccccc3[C@@H]21", "note": "[Example 93, N-((1R,2S)-2-{[(3aR,4R,9bR)-4-Phenyl-2,3,3a,4,5,9b-hexahydro-1H-pyrrolo[3,2-c]quinolin-1-yl]carbonyl}cyclohexyl)hexanamide]", "IC50": "< 10"},
      {"molecule": "COc1ccc(NC(=O)N[C@@H]2CCCC[C@@H]2C(=O)N2CC[C@@H]3[C@H](c4ccccc4)Nc4ccccc4[C@@H]32)cc1", "note": "[Example 137, N-(4-Methoxyphenyl)-N′-((1R,2S)-2-{[(3aR,4R,9bR)-4-phenyl-2,3,3a,4,5,9b-hexahydro-1H-pyrrolo[3,2-c]quinolin-1-yl]carbonyl}cyclohexyl)urea]", "IC50": "< 1"},
      {"molecule": "NC(=O)c1ccc(C(=O)N[C@@H]2CCCC[C@@H]2C(=O)N2CC[C@@H]3[C@H](c4ncc[nH]4)Nc4ccccc4[C@@H]32)cc1", "note": "[Example 306, N-((1R,2S)-2-{[(3aR,4R,9bR)-4-(1H-Imidazol-2-yl)-2,3,3a,4,5,9b-hexahydro-1H-pyrrolo[3,2-c]quinolin-1-yl]carbonyl}cyclohexyl)terephthalamide]", "IC50": "< 10"},
      {"molecule": "O=C(NC1CCCCC1)N[C@@H]1CCCC[C@@H]1C(=O)N1CC[C@@H]2[C@H](c3ccccc3)Nc3ccccc3[C@@H]21", "note": "[Example 149, N-Cyclohexyl-N′-((1R,2S)-2-{[(3aR,4R,9bR)-4-phenyl-2,3,3a,4,5,9b-hexahydro-1H-pyrrolo[3,2-c]quinolin-1-yl]carbonyl}cyclohexyl)urea]", "IC50": "< 10"},
      {"molecule": "O=C(Nc1ccccn1)N[C@@H]1CCCC[C@@H]1C(=O)N1CC[C@@H]2[C@H](c3ccccc3)Nc3ccccc3[C@@H]21", "note": "[Example 170, N-((1R,2S)-2-{[(3aR,4R,9bR)-4-Phenyl-2,3,3a,4,5,9b-hexahydro-1H-pyrrolo[3,2-c]quinolin-1-yl]carbonyl}cyclohexyl)-N′-pyridin-2-ylurea]", "IC50": "< 10"},
      {"molecule": "COC[C@@H]1Nc2ccccc2[C@H]2[C@@H]1CCN2C(=O)[C@H]1CCCC[C@H]1NC(=O)c1ccc(N2CCOCC2)nc1", "note": "[Example 286, N-((1R,2S)-2-{[(3aR,4R,9bR)-4-(Methoxymethyl)-2,3,3a,4,5,9b-hexahydro-1H-pyrrolo[3,2-c]quinolin-1-yl]carbonyl}cyclohexyl)-6-morpholin-4-ylnicotinamide]", "IC50": "< 10"},
      {"molecule": "C[C@]12CCN(C(=O)[C@H]3CCCC[C@H]3NC(=O)c3ccccc3)[C@H]1c1ccccc1N[C@H]2c1ccsc1", "note": "[Example 193, N-((1R,2S)-2-{[(3aR,4R,9bR)-3a-Methyl-4-(3-thienyl)-2,3,3a,4,5,9b-hexahydro-1H-pyrrolo[3,2-c]quinolin-1-yl]carbonyl}cyclohexyl)benzamide]", "IC50": "< 1"},
      {"molecule": "O=C(N[C@@H]1CCCC[C@@H]1C(=O)N1CC[C@@H]2C(C3CCOCC3)Nc3ccccc3[C@@H]21)c1ccccc1", "note": "(stereo in doubt) [Example 79, N-((1R,2S)-2-{[(3aR,4R,9bR)-4-Tetrahydro-2H-pyran-4-yl-2,3,3a,4,5,9b-hexahydro-1H-pyrrolo[3,2-c]quinolin-1-yl]carbonyl}cyclohexyl)benzamide]", "IC50": "< 10"},
      {"molecule": "O=C(NC1(CC(=O)N2CC[C@@H]3[C@H](c4ccccc4)Nc4ccccc4[C@@H]32)CCCCC1)c1ccccc1", "note": "(relative stereo) [Example 312, N-(1-{2-oxo-2-[(3aR*,4R*,9bR*)-4-phenyl-2,3,3a,4,5,9b-hexahydro-1H-pyrrolo[3,2-c]quinolin-1-yl]ethyl}cyclohexyl)benzamide]", "IC50": "< 10"},
      {"molecule": "O=C(N[C@@H]1CCCC[C@@H]1C(=O)N1CC[C@@H]2[C@H](c3cccnc3)Nc3ccccc3[C@@H]21)c1ccccc1", "note": "(relative stereo) [Example 20, N-((1R,2S)-2-{[(3aR*,4R*,9bR*)-4-Pyridin-3-yl-2,3,3a,4,5,9b-hexahydro-1H-pyrrolo[3,2-c]quinolin-1-yl]carbonyl}cyclohexyl)benzamide]", "IC50": "< 10"},
      {"molecule": "O=C(/C=C/c1ccccc1)N[C@@H]1CCCC[C@@H]1C(=O)N1CC[C@@H]2[C@H](c3ccccc3)Nc3ccccc3[C@@H]21", "note": "[Example 101, (2E)-3-Phenyl-N-((1R,2S)-2-{[(3aR,4R,9bR)-4-phenyl-2,3,3a,4,5,9b-hexahydro-1H-pyrrolo[3,2-c]quinolin-1-yl]carbonyl}cyclohexyl)acrylamide]", "IC50": "< 1"},
      {"molecule": "COC[C@@H]1Nc2ccccc2[C@H]2[C@@H]1CCN2C(=O)[C@H]1CCCC[C@H]1NC(=O)c1ccc2c(c1)OCCN2C", "note": "[Example 269, N-((1R,2S)-2-{[(3aR,4R,9bR)-4-(Methoxymethyl)-2,3,3a,4,5,9b-hexahydro-1H-pyrrolo[3,2-c]quinolin-1-yl]carbonyl}cyclohexyl)-4-methyl-3,4-dihydro-2H-1,4-benzoxazin-7-carboxamide]", "IC50": "< 1"},
      {"molecule": "COC[C@@H]1Nc2ccccc2[C@H]2[C@@H]1CCN2C(=O)[C@H]1CCCC[C@H]1NC(=O)c1ccc2[nH]ccc2c1", "note": "[Example 218, N-((1R,2S)-2-{[(3aR,4R,9bR)-4-(Methoxymethyl)-2,3,3a,4,5,9b-hexahydro-1H-pyrrolo[3,2-c]quinolin-1-yl]carbonyl}cyclohexyl)-1H-indole-5-carboxamide]", "IC50": "< 1"},
      {"molecule": "O=C(N[C@@H]1CCCC[C@@H]1C(=O)N1CC[C@@H]2[C@H](c3ccccc3)Nc3ccccc3[C@@H]21)c1cccc(F)c1", "note": "[Example 96, 3-Fluoro-N-((1R,2S)-2-{[(3aR,4R,9bR)-4-phenyl-2,3,3a,4,5,9b-hexahydro-1H-pyrrolo[3,2-c]quinolin-1-yl]carbonyl}cyclohexyl)benzamide]", "IC50": "< 10"},
      {"molecule": "O=C(Nc1ccccc1)N[C@@H]1CCCC[C@@H]1C(=O)N1CCc2c(-c3ccccc3)nc3ccccc3c21", "note": "[Example 326, N-Phenyl-N′-{(1R,2S)-2-[(4-phenyl-2,3-dihydro-1H-pyrrolo[3,2-c]quinolin-1-yl)carbonyl]cyclohexyl}urea]", "IC50": "< 10"},
      {"molecule": "NC(=O)c1ccc(NC(=O)N[C@@H]2CCCC[C@@H]2C(=O)N2CC[C@@H]3[C@H](c4ccccc4)Nc4ccccc4[C@@H]32)cc1", "note": "[Example 160, 4-({[((1R,25)-2-{[(3aR,4R,9bR)-4-Phenyl-2,3,3a,4,5,9b-hexahydro-1H-pyrrolo[3,2-c]quinolin-1-yl]carbonyl}cyclohexyl)amino]carbonyl}amino)benzamide]", "IC50": "< 1"},
      {"molecule": "COC[C@@H]1Nc2ccccc2[C@H]2[C@@H]1CCN2C(=O)[C@H]1CCCC[C@H]1NC(=O)c1ccc2nccnc2c1", "note": "[Example 246, N-((1R,2S)-2-{[(3aR,4R,9bR)-4-(Methoxymethyl)-2,3,3a,4,5,9b-hexahydro-1H-pyrrolo[3,2-c]quinolin-1-yl]carbonyl}cyclohexyl)quinoxaline-6-carboxamide]", "IC50": "< 10"},
      {"molecule": "CCC[C@@H]1Nc2ccccc2[C@H]2[C@@H]1CCN2C(=O)[C@H]1CCCC[C@H]1NC(=O)Nc1ccc(OC)cc1", "note": "[Example 196, N-(4-Methoxyphenyl)-N′-((1R,2S)-2-{[(3aR,4S,9bR)-4-propyl-2,3,3a,4,5,9b-hexahydro-1H-pyrrolo[3,2-c]quinolin-1-yl]carbonyl}cyclohexyl)urea]", "IC50": "< 1"},
      {"molecule": "O=C(N[C@@H]1CCCC[C@@H]1C(=O)N1CC[C@@H]2[C@H](c3ccccc3)Nc3c(F)cccc3[C@@H]21)c1ccccc1", "note": "(relative stereo) [Example 8, N-((1R,2S)-2-{[(3aR*,4R*,9bR*)-6-Fluoro-4-phenyl-2,3,3a,4,5,9b-hexahydro-1H-pyrrolo[3,2-c]quinolin-1-yl]carbonyl}cyclohexyl)benzamide]", "IC50": "< 10"},
      {"molecule": "O=C(N[C@@H]1CCCC[C@@H]1C(=O)N1CC[C@@H]2[C@H](c3ccsc3)Nc3ccccc3[C@@H]21)c1ccc2[nH]nnc2c1", "note": "[Example 189, N-((1R,2S)-2-{[(3aR,4R,9bR)-4-(3-Thienyl)-2,3,3a,4,5,9b-hexahydro-1H-pyrrolo[3,2-c]quinolin-1-yl]carbonyl}cyclohexyl)-1H-1,2,3-benzotriazole-5-carboxamide]", "IC50": "< 1"},
      {"molecule": "N#Cc1ccc(C(=O)N[C@@H]2CCCC[C@@H]2C(=O)N2CC[C@@H]3[C@H](c4ccc[nH]4)Nc4ccccc4[C@@H]32)cc1", "note": "[Example 322, 4-Cyano-N-((1R,2S)-2-{[(3aR,4R,9bR)-4-(1H-pyrrol-2-yl)-2,3,3a,4,5,9b-hexahydro-1H-pyrrolo[3,2-c]quinolin-1-yl]carbonyl}cyclohexyl)benzamide]", "IC50": "< 1"},
      {"molecule": "COc1ccc(CNC(=O)N[C@@H]2CCCC[C@@H]2C(=O)N2CC[C@@H]3[C@H](c4ccccc4)Nc4ccccc4[C@@H]32)cc1", "note": "[Example 144, N-(4-Methoxybenzyl)-N′-((1R,2S)-2-{[(3aR,4R,9bR)-4-phenyl-2,3,3a,4,5,9b-hexahydro-1H-pyrrolo[3,2-c]quinolin-1-yl]carbonyl}cyclohexyl)urea]", "IC50": "< 10"},
      {"molecule": "O=C(N[C@@H]1CCCC[C@@H]1C(=O)N1CC[C@@H]2[C@H](C3CC3)Nc3ccccc3[C@@H]21)c1ccccc1", "note": "(relative stereo) [Example 29, N-((1R,2S)-2-{[(3aR*,4S*,9bR*)-4-Cyclopropyl-2,3,3a,4,5,9b-hexahydro-1H-pyrrolo[3,2-c]quinolin-1-yl]carbonyl}cyclohexyl)benzamide]", "IC50": "< 10"},
      {"molecule": "COC[C@@H]1Nc2ccccc2[C@H]2[C@@H]1CCN2C(=O)[C@H]1CCCC[C@H]1NC(=O)c1ccccc1", "note": "(relative stereo) [Example 51, N-((1R,2S)-2-{[(3aR*,4R*,9bR*)-4-(Methoxymethyl)-2,3,3a,4,5,9b-hexahydro-1H-pyrrolo[3,2-c]quinolin-1-yl]carbonyl}cyclohexyl)benzamide]", "IC50": "< 10"}
    ]}
  ]
}
